Source: article PMC9959748, “Nucleoside Analogs That Inhibit SARS-CoV-2 Replication by Blocking Interaction of Virus Polymerase with RNA” (International Journal of Molecular Sciences, 2023)
Like-named read-outs stand apart in the source and are kept apart here.

Tests used:
SARS-CoV-2 [1] = assay: microbe, parasite or virus in culture; type: cell-based, SARS-CoV-2 (hCoV-19/Russia/Moscow-PMVL-12/2020 strain)
MDCK cells = conditions: concentration decreasing cell number by 50%
[2] = test system: Influenza A/California/7/2009 (H1N1)pdm09; assay: organism not typed; type: cell-based, Influenza virus; conditions: for IC50: read-out: IC50 ± SD Influenza Virus; for log reduction at 50 µM: read-out: Δlog10(TCID50) Influenza Virus; for SI (selectivity index), the ratio of CD50 to IC50: influenza virus
SARS-CoV-2 [3] = assay: microbe, parasite or virus in culture; type: cell-based, SARS-CoV-2 (hCoV-19/Russia/Moscow-PMVL-12/2020 strain); conditions: for log reduction at 20 µM: measured at 20 µM
[4] = target: SARS-CoV-2 RdRp holoenzyme (nsp12, nsp7, nsp8) (Severe acute respiratory syndrome coronavirus 2, UniProt P0DTD1); assay: biochemical; type: biochemical; conditions: for Inhibition of RNA extension by RdRp: 1 mM inhibitor pre-incubated with RdRp before RNA substrate (Figure 3A); for IC50: RdRp pre-incubated with inhibitor, then RNA substrate and ATP added, read-out: IC50 for inhibition of RdRp activity (RNA extension)
SARS-CoV-2 RdRp [5] = target: T1, SARS-CoV-2 RdRp (Severe acute respiratory syndrome coronavirus 2, UniProt P0DTD1); assay: Electrophoretic mobility shift assay of RNA binding by RdRp; conditions: 1 mM inhibitor incubated with RdRp before RNA substrate
SARS-CoV-2 RdRp [6] = target: T1, SARS-CoV-2 RdRp; conditions: cited from earlier work
SARS-CoV-2 PIK35 strain = test system: SARS-CoV-2 PIK35 strain; parameters: method as in PMID 35127150; conditions: Vero cells, read-out: EC50, inhibition of the reproduction of SARS-CoV-2; cited from earlier work
SARS-CoV-2 RdRp [7] = target: T1, SARS-CoV-2 RdRp; parameters: method as in PMID 33674802; conditions: interferes with template and primer RNA binding; cited from earlier work
[8] = Severe acute respiratory syndrome coronavirus 2, Vero C1008, 96 h, read-out: Δlog10(RNA), logarithmic change in the SARS-CoV-2 RNA levels
[9] = Severe acute respiratory syndrome coronavirus 2, Vero C1008, Vero E6, vs DMSO-treated control, read-out: Δlog10(TCID50) SARS-CoV-2
[10] = African green monkey (Chlorocebus aethiops)
[11] = concentration reducing the cell number by 50%, MTT

Compound | log reduction at 50 µM (SARS-CoV-2 [1]; [8]) | CD50 ± SD MDCK (MDCK cells) | IC50 ([2]; MDCK) | log reduction at 50 µM ([2]; at 50 µM, MDCK cells) | log reduction at 50 µM (SARS-CoV-2 [3]; [9]) | CD50 ± SD Vero E6 (Vero E6 cells; [10]) | Anti-SARS-CoV-2 activity grade (SARS-CoV-2 [1]) | Inhibition of RNA extension by RdRp [4] | other results
CCCCCc1ccc(-c2cc3cn(COCCO)c(=O)[nH]c-3n2)cc1 [Compound 7, 3-((2-(Hydroxy)ethoxy)methyl)-6-(4-pentylphenyl)-3H-pyrrolo [2,3-d]-pyrimidine-2-one] | 0.4 | 74 ± 12 µM | > 50 µM | 0.5 | 0 | 240 ± 19 µM | – | – | Effect on SARS-CoV-2 viral RNA titer (SARS-CoV-2 [1]; summary of Table 1): inactive; Effect on SARS-CoV-2 infectivity, TCID50 in Vero cells (SARS-CoV-2 [3]; summary of Table 1): inactive
CCCCCc1ccc(-c2cc3cn(C4C=CC(O)C4)c(=O)nc3o2)cc1 (centres unmarked) [Compound 3] | 1.3 | 442 ± 21 µM | > 50 µM | 0 | – | >500 µM | Moderate activity | completely blocked RNA synthesis | log reduction at 20 µM (SARS-CoV-2 [3]; [9]): 0.5
CC(C)(C)c1ccc(Oc2cn(C3C=CC(O)C3)c(=O)[nH]c2=O)cc1 (centres unmarked) [Compound 11] | 0.7 | >1000 µM | > 50 µM | -0.5 | – | 440 ± 6 µM | Moderate activity | – | log reduction at 20 µM (SARS-CoV-2 [3]; [9]): 1
CC(C)(C)c1ccc(Nc2cn(C3C=CC(O)C3)c(=O)[nH]c2=O)cc1 (centres unmarked) [Compound 8] | 1.1 | 552 ± 35 µM | > 50 µM | 0.5 | 0.5 | >500 µM | Moderate activity | – | Effect on SARS-CoV-2 viral RNA titer (SARS-CoV-2 [1]; summary of Table 1): visible reduction; Effect on SARS-CoV-2 infectivity, TCID50 in Vero cells (SARS-CoV-2 [3]; summary of Table 1): weak protection
CC(C)(C)c1ccc(-c2cc3cn(COCCO)c(=O)[nH]c-3n2)cc1 [Compound 14, 3-((2-(Hydroxy)ethoxy)methyl)-6-(4-tert-butylphenyl)-3H-pyrrolo [2,3-d]-pyrimidine-2-one] | 0.4 | 74 ± 18 µM | ~1 µM | 1.5 | 1 | 310 ± 24 µM | Moderate activity | completely blocked RNA synthesis | Effect on SARS-CoV-2 viral RNA titer (SARS-CoV-2 [1]; summary of Table 1): only weakly affected; SI (selectivity index), the ratio of CD50 to IC50 ([2]; MDCK cells): 110.61; IC50 [2]: 0.67 ± 0.12 µM; Effect on SARS-CoV-2 infectivity, TCID50 in Vero cells (SARS-CoV-2 [3]; summary of Table 1): stronger effects; Inhibition of RNA binding by RdRp, EMSA (SARS-CoV-2 RdRp [5]): fully prevented RNA binding; IC50 [4]: 244 ± 58 µM
CCCCCc1ccc(-c2cc3cn(COCCO)c(=O)nc3o2)cc1 [Compound 5, 3-((2-(Hydroxy)ethoxy)methyl)-6-(4-pentylphenyl)-3H-furano [2,3-d]-pyrimidine-2-on] | 0.3 | 686 ± 46 µM | ~1 µM | 1.5 | 1 | 400 ± 98 µM | Moderate activity | completely blocked RNA synthesis | Effect on SARS-CoV-2 viral RNA titer (SARS-CoV-2 [1]; summary of Table 1): only weakly affected; IC50 [2]: 1.34 ± 0.33 µM; Effect on SARS-CoV-2 infectivity, TCID50 in Vero cells (SARS-CoV-2 [3]; summary of Table 1): stronger effects; IC50 [4]: 72 ± 20 µM
O=c1nc(NO)ccn1[C@@H]1O[C@H](CO)[C@@H](O)[C@H]1O [NHC, N4-hydroxycitidine, reference compound] | – | – | – | – | – | – | – | – | Δlog10(RNA), logarithmic change in the SARS-CoV-2 RNA levels (SARS-CoV-2 [1]; measured at 10 µM (footnote *), Vero E6, vs DMSO): 3.9 *; CD50 ± SD Vero E6 (Vero E6 cells; [11]): 80 ± 18 µM
O=C(N[C@@H](Cc1ccc(O)cc1)C(=O)O)c1cc(-c2ccccc2)c(=O)n2c1sc1ccc(OC3CCCCC3)cc12 [HeE1-2Tyr] | – | – | – | – | – | – | – | – | IC50 (SARS-CoV-2 RdRp [6]): 27 µM
CCCCCc1ccc(-c2cc3cn([C@@H]4O[C@H](CO)[C@@H](O)[C@H]4O)c(=O)nc3o2)cc1 [Compound 4, 3-(β-D-Ribofuranosyl)-6-(4-pentylphenyl)-3H-furano [2,3-d]-pyrimidine-2-on] | 0.2 | 652 ± 77 µM | > 25 µM | 1 | – | >500 µM | – | – | log reduction at 20 µM (SARS-CoV-2 [3]; [9]): 0.5
CCOC(=O)C1=C[C@@H](OC(CC)CC)[C@H](NC(C)=O)[C@@H](N)C1 [Oseltamivir, reference compound] | – | 500 ± 82 µM | 0.61 ± 0.15 µM | – | – | – | – | – | SI (selectivity index), the ratio of CD50 to IC50 ([2]; MDCK cells): 820
CCCCCc1ccc(-c2cc3cn([C@@H]4O[C@H](CO)[C@@H](O)[C@H]4O)c(=O)[nH]c-3n2)cc1 [Compound 6, 3-(β-D-ribofuranosyl)-6-(4-pentylphenyl)-3H-pyrrolo [2,3-d]-pyrimidine-2-on] | 0.2 | 614 ± 52 µM | > 50 µM | 0 | 0 | 450 ± 166 µM | – | – | Effect on SARS-CoV-2 viral RNA titer (SARS-CoV-2 [1]; summary of Table 1): inactive; Effect on SARS-CoV-2 infectivity, TCID50 in Vero cells (SARS-CoV-2 [3]; summary of Table 1): inactive
CCCCCc1ccc(-c2cc3cn(C4C=CC(O)C4)c(=O)nc3[nH]2)cc1 (centres unmarked) [Compound 1, 1-(4’-hydroxy-2’-cyclopenten-1-yl)-6-(4-pentylphenyl)-3H-pyrrolo [2,3-d]-pyrimidine-2-one] | – | 89 ± 12 µM | > 50 µM | 0 | – | 153 ± 5 µM | – | completely blocked RNA synthesis | log reduction at 10 µM (SARS-CoV-2 [1]; Severe acute respiratory syndrome coronavirus 2, Vero C1008, 96 h, measured at 10 µM (footnote *), Vero E6, vs DMSO, read-out: Δlog10(RNA), logarithmic change in the SARS-CoV-2 RNA levels): 1.5; Decrease of the amount of viral RNA (SARS-CoV-2 [1]; summary of Table 1): > 10 fold; EC50 (SARS-CoV-2 PIK35 strain): 21 µM; log reduction at 20 µM (SARS-CoV-2 [3]; [9]): 1; Decrease of the TCID50 value (SARS-CoV-2 [3]; summary of Table 1): ~ 10 fold; Inhibition of RNA binding by RdRp, EMSA (SARS-CoV-2 RdRp [5]): fully prevented RNA binding; IC50 [4]: 44 ± 2 µM
CC(C)(C)c1ccc(Nc2cn(C3C=CC(O)C3)c(=O)n(C3C=CC(O)C3)c2=O)cc1 (centres unmarked) [Compound 9] | 0.8 | 392 ± 9 µM | > 50 µM | 0.5 | 0.5 | 220 ± 23 µM | – | weaker effects | –
CC(C)(C)c1ccc(Oc2cn(C3C=CC(O)C3)c(=O)n(C3C=CC(O)C3)c2=O)cc1 (centres unmarked) [Compound 10] | 0.8 | 418 ± 42 µM | > 50 µM | -0.5 | – | 500 ± 30 µM | – | completely blocked RNA synthesis | log reduction at 2 µM (SARS-CoV-2 [3]; Severe acute respiratory syndrome coronavirus 2, Vero C1008, measured at 2 µM (footnote ***), Vero E6, vs DMSO-treated control, read-out: Δlog10(TCID50) SARS-CoV-2): 0.5; Inhibition of RNA binding by RdRp, EMSA (SARS-CoV-2 RdRp [5]): fully prevented RNA binding
1-(β-D-Ribofuranosyl)-5-(4-tert-butylphenoxy)-uracil [Compound 13] | – | >1000 µM | – | – | – | – | Moderate activity | – | Δlog10(RNA), logarithmic change in the SARS-CoV-2 RNA levels (SARS-CoV-2 [1]): 0.8; Δlog10(TCID50) Influenza Virus ([2]; at 50 µM, MDCK cells): 0.5; IC50 [2]: > 50 µM; CD50 ± SD Vero E6 (Vero E6 cells; [11]): >500 µM
Cc1c(C)c2c(c3c1CC[n+]1ccc(/C=C4\Sc5ccccc5N4C)cc1-3)-c1cccc(/C=C3\Sc4ccccc4N3C)[n+]1CC2 [PR673] | – | – | – | – | – | – | – | – | IC50 (SARS-CoV-2 RdRp [6]): ~4 µM
Cc1ccc(C(=O)Nc2ccc(S(=O)(=O)O)c3cc(S(=O)(=O)O)cc(S(=O)(=O)O)c23)cc1NC(=O)c1cccc(NC(=O)Nc2cccc(C(=O)Nc3cc(C(=O)Nc4ccc(S(=O)(=O)O)c5cc(S(=O)(=O)O)cc(S(=O)(=O)O)c45)ccc3C)c2)c1 [suramin] | – | – | – | – | – | – | – | – | Affinity of interaction with RdRp (SARS-CoV-2 RdRp [7]): micromolar affinity
CC(C)(C)c1ccc(-c2cc3cn(C4C=CC(O)C4)c(=O)nc3[nH]2)cc1 (centres unmarked) [Compound 2, 1-(4’-hydroxy-2’-cyclopenten-1-yl)-6-(4-tert-butylphenyl)-3H-pyrrolo [2,3-d]-pyrimidine-2-one] | 0.3 | 68 ± 5 µM | ~1 µM | 1.5 | – | 150 ± 15 µM | – | – | SI (selectivity index), the ratio of CD50 to IC50 ([2]; MDCK cells): 49.60; IC50 [2]: 1.37 ± 0.28 µM; EC50 (SARS-CoV-2 PIK35 strain): 53 µM; log reduction at 20 µM (SARS-CoV-2 [3]; [9]): 0.5
